Source: US20030017976A1, “Therapeutic properties of liposome-encapsulated immunomodulators” (priority 1998, published 2003)
“And” between values parts separate entries of the source, which are not always exact repeats. Identical values can stand only once.

Assays:
[1] = test system: L3.6pl human pancreatic tumors; test: Therapy of L3.6pl human pancreatic tumors in nude mice; assay type: in vivo, mouse; settings: CPT-11 100 mg/kg i.p. once a week +/− oral JBT 3002 (tablet) 0.05 mcg/dose
Procedure: Table 19 (A, B, C). Therapy of human pancreatic carcinoma liver metastasis. The pancreas of nude mice were injected with 1×10^6 viable human pancreatic cancer L3.6pl cells. […] This regimen was repeated on a weekly basis for 3 weeks. The mice were killed. Pancreatic tumors, liver metastases, and lymph node metastasis were quantified.

[2] = test system: tumor cells; test: Macrophage-mediated tumor cytotoxicity, target cells not named; assay type: cell-based; settings: available in MLV to 1×10^5 cells
Procedure: Cytotoxicity was assayed by measuring release of radioactivity from target cell DNA as described previously (Dong Z, et al. J Exp Med (1993) 177:1071-7). Briefly, tumor target cells in their exponential growth phase were incubated in medium containing 0.25 μCi/ml of [^3H]TdR (sp. Act. 2 Ci/mmol) (ICN Biomedicals, Inc., Irvine, Calif.) for 24 h. The cells were washed three times with HBSS to remove unbound radioactivity and then harvested by trypsinization (0.25% trypsin in 0.02% EDTA), washed, and resuspended in medium. Cells were plated (at 1×10^4/well) into wells containing control or test macrophages to achieve an E/T cell ratio of 10:1. At this density, macrophages incubated in medium (control) were not cytotoxic to neoplastic cells (Weinstein SL, et al. Proc Natl Acad Sci USA (1991) 88:4148-52; Dong Z, et al. JLeukoc Biol (1993) 53:53-60). […] The lysate was harvested with harvester 96 (Tomtec, Orange, Conn.) and counted for residual radioactivity in a liquid scintillation counter. Macrophage-mediated cytotoxicity was calculated as follows: […]
Efficient activation of macrophages by LPS requires priming by IFN-γ (Saiki I, et al. J Immunol (1985) 135:684-8). […] Tumor cytotoxicity was measured 72 h after the addition of radiolabeled tumor cells to the activated macrophages. […]

[3] = test system: human blood monocytes; test: ELISAs for TNF-α, IL-1β and IL-6 in human blood monocytes; assay type: cell-based
Procedure: Blood-cells buff coats were obtained on the day of collection from the Gulf Coast Regional Blood Center (Houston, Tex.). The buffy coats were diluted with HBSS and layered on to 15 ml of prescreened entotoxin-free lymphocyte separation medium (Ficoll-Hypaque; density: 1.077). After 10 min of centrigugation at 1500×g, the mononuclear fractions were collected, washed once, and resuspended in 20 ml of elutriation medium (2% human albumin-100 U/mi penicillin and 100 μg/ml streptomycin in PBS). Monocyte-rich fractions were isolated by countercurrent elutriation using a JE-6B elutriation rotator (B3eckman) as described in detail previously (Fidler, I. et al. Prog. Clin. Biol. Res. (1989) 288:169). At a speed of 3000 rpm and flow rate of 41 ml/min, the monocyte fraction was obtained; it contained >90-95% monocytes as identified by nonspecific esterase staining morphological examination; they were >95% viable as measured by the trypan blue exclusion test. The cells were incubated in serum-free EMEM for 18 h prior to assays.
After overnight incubation in serum-free EMEM, monocytes plated at the density of 1×10^5/38-mm^2well /200 μl of EMEM (96-well plates) were treated as indicated in the Results section. The culture supernatants were harvested and used immediately or stored at −70° C. The supernatants were diluted at 1:5 or 1:10 and assayed for cytokines using ELISA kits according to the manufacturer's instructions.

[4] = test system: C57BL/6 mice; test: Prevention of CPT-11 induced intestinal damage and morbidity by oral immunomodulator; assay type: in vivo, mouse; settings: oral saline or JBT3002 0.1, 1.0 and 10 μg/dose in PC liposomes, then CPT-11 100 mg/kg i.p. 4 days
Procedure: Experimental Design and Methods. […] Tissue was harvested 7 days after the last injection (small intestine and colon distal to the cecum). Histology was prepared. Some mice were monitored for the presence of drug toxicity.
Example 6 has shown that 100, 150, and 200 mg/kg at 4 consecutive i.p. administrations are highly toxic to C57BL/6 mice.

“N-hexadecanol-S-[2(R)-3-diodecanoyloxypropyl]-L-cysteinyl-L-alanyl-D-isoglutaminyl-glycyl-taurine sodium salt [JBT3002]” was tested, and the “Incidence LN met” value ([1]; 31 days) was 7/10, the “Incidence WT/PC” value ([1]; 31 days) was 3/10 and the Incidence liver met ([1]; 31 days) was 2/9. The “Tumor weight, Average” value ([1]; 31 days) was 706.22 mg, the “Tumor weight, Max” value ([1]; 31 days) was 981 mg and the “Tumor weight, Median” value ([1]; 31 days) was 733 mg. For the same substance, the “Tumor weight, Min” value ([1]; 31 days) was 362 mg, the “tumor weight (range)” value ([1]; 31 days) was “(362-981) mg” and the “Tumor weight, single animals” value ([1]; 31 days after tumor cell injection, sodium salt) was 862 mg and 871 mg and 981 mg and 621 mg and 362 mg and 733 mg and 559 mg and 820 mg and 547 mg. The “minimal concentration of JBT3002 for significant activation of tumoricidal properties in PEM” value [2] was 1.5 ng, the “incubation time at which TNF-α protein was detected” value ([3]; free-form JBT3002 1 ng/ml or MLV-JBT3002 100 nmol/well of 1 mg/300 μmol lipid) was 2 h and the “concentration range inducing TNF-α production” value ([3]; monocytes treated for 8 h) was 0.001 to 10 ng/mL. For the same substance, the “serum dependence of cytokine production” value ([3]; serum-free EMEM vs 5% FBS) was “not significantly altered in the absence of serum” and the “intestinal toxicity (histology)” value [4] was “the intestines were normal”.
